Columns and labels:
T-47D = experiment: MTT test, T-47D; format: cell-based; settings: Homo sapiens, T47D, 10^−5 M, 72 hours, control = 100%, mean ± SEM, read-out: average optical density (MTT), percentage relative to control
Procedure: (§1) The influence of the compounds of formulae (I) and (Ia) on non-clonogenic cells was evaluated with the aid of the MTT calorimetric test.
(§2) The principle of the MTT test is based on the mitochondrial reduction, by the metabolically active live cells, of the yellow-colored product MTT (3-(4,5-dimethylthiazol-2-yl)-2,5-diphenyltetrazolium bromide) to a blue-colored product, formazan. The amount of formazan thus obtained is directly proportional to the amount of live cells present in the culture well(s). This amount of formazan is measured by spectrophotometry.
(§3) The cell lines are maintained as a monolayer culture at 37° C. in stoppered culture dishes containing MEM 25 MM HEPES (Minimum Essential Medium) base medium. This medium is suited to the growth of a range of various mammalian diploid or primary cells. This medium is then supplemented with:
(§4) an amount of 5% of FCS (Foetal Calf Serum) decomplemented at 56° C. for 1 hour,
(§5) 0.6 mg/ml of L-glutamine,
(§6) 200 μg/ml of streptomycin,
(§7) The 12 human cancer cell lines which were used were obtained from the American Type Culture Collection (ATCC, Rockville, Md., USA). These 12 cell lines are:
(§8) T-47D (code ATCC: HTB-133) and MCF7 (code ATCC: HTB-22) which are two breast cancers,
(§9) Experimentally: 100 μl of a cell suspension containing 20 000 to 50 000 (depending on the cell type used) cells/ml of culture medium are inoculated in 96-well flat-bottomed multi-well plates and are incubated at 37° C., under an atmosphere comprising 5% CO2 and 70% humidity. After incubation for 24 hours, the culture medium is replaced with 100 μl of fresh medium containing either the various test compounds at concentrations ranging from 10^−5 to 10^−10 M or the solvent used to dissolve the test products (control condition). After incubation for 72 hours under the above conditions, the culture medium is replaced with 100 μl of a yellowish solution of MTT dissolved at a rate of 1 mg/ml in RPMI 1640. The microplates are reincubated for 3 hours at 37° C. and are then centrifuged for 10 minutes at 400×g. The yellowish solution of MTT is removed and the blue formazan crystals formed in the cell are dissolved in 100 μl of DMSO. The microplates are then shaken for 5 minutes. The intensity of the resulting blue coloration, and thus of the conversion of the yellow product MTT into blue formazan by the cells that are still alive at the end of the experiment, is quantified by spectrophotometry using a Dynatech Immunoassay System machine at wavelengths of 570 nm and 630 nm corresponding, respectively, to the maximum absorption wavelengths of formazan and to the background noise. Software incorporated in the spectrophotometer calculates the average optical density values and the standard deviation (SD) and standard error of mean (SEM) values.
(§10) By way of example, the results of the average optical density, expressed as a percentage relative to the average optical density measured under the control condition (set equal to 100%), obtained at a concentration of 10^−5 M on the 12 abovementioned tumor cell lines are given in Table II.

U-87MG = experiment: MTT test, U-87MG; format: cell-based; settings: Homo sapiens, 10^−5 M, 72 hours, control = 100%, mean ± SEM, read-out: average optical density (MTT), percentage relative to control
Procedure: as §1, §2, §3, §4, §5, §6, §7
(§11) U-373MG (code ATCC: HTB-17) and U-87MG (code ATCC: HTB-14) which are two glioblastomas,
as §9, §10

MCF7 = experiment: MTT test, MCF7; format: cell-based; settings: Homo sapiens, 10^−5 M, 72 hours, control = 100%, mean ± SEM, read-out: average optical density (MTT), percentage relative to control
Procedure: as §1, §2, §3, §4, §5, §6, §7, §8, §9, §10

[1] = Determination of the maximum tolerated dose (MTD); settings: mouse, in vivo, ip; B6D2F1/Jico mice; single intraperitoneal administration, 2.5 to 160 mg/kg; survival over 14 days
Procedure: 3.—Determination of the Maximum Tolerated Dose (MTD):
The evaluation of the maximum tolerated dose was carried out on 4- to 6-week-old B6D2F1/Jico mice. The compounds were administered intraperitoneally at increasing doses graduating from 2.5 to 160 mg/kg. The value of the MTD (expressed in mg/kg) is determined from the observation of the survival rate of the animals over a 14-day period after a single administration of the product under consideration. The weight change of the animals is also monitored during this period. When the value of the MTD is greater than 160 mg/kg, the MTD value is likened to 160 mg/kg by default.
The results of the estimation of the maximum tolerated dose (MTD) are collated in the following table: […]

SW1088 = experiment: MTT test, SW1088; format: cell-based; settings: Homo sapiens, 10^−5 M, 72 hours, control = 100%, mean ± SEM, read-out: average optical density (MTT), percentage relative to control
Procedure: as §1, §2, §3, §4, §5, §6, §7
SW1088 (code ATCC: HTB-12) which is an astrocytoma,
as §9, §10

LoVo = experiment: MTT test, LoVo; format: cell-based; settings: Homo sapiens, 10^−5 M, 72 hours, control = 100%, mean ± SEM, read-out: average optical density (MTT), percentage relative to control
Procedure: as §1, §2, §3, §4, §5, §6, §7
(§12) HTC-15 (code ATCC: CCL-225) and LoVo (code ATCC: CCL-229) which are two colorectal cancers,
as §9, §10

A-427 = experiment: MTT test, A-427; format: cell-based; settings: Homo sapiens, 10^−5 M, 72 hours, control = 100%, mean ± SEM, read-out: average optical density (MTT), percentage relative to control
Procedure: as §1, §2, §3, §4, §5, §6, §7
(§13) A549 (code ATCC: CCL-185) and A-427 (code ATCC: HTB-53) which are two non-small-cell lung cancers,
as §9, §10

A549 = experiment: MTT test, A549; format: cell-based; settings: Homo sapiens, 10^−5 M, 72 hours, control = 100%, mean ± SEM, read-out: average optical density (MTT), percentage relative to control
Procedure: as §1, §2, §3, §4, §5, §6, §7, §13, §9, §10

T24 = experiment: MTT test, T24; format: cell-based; settings: Homo sapiens, T-24, 10^−5 M, 72 hours, control = 100%, mean ± SEM, read-out: average optical density (MTT), percentage relative to control
Procedure: as §1, §2, §3, §4, §5, §6, §7
(§14) J82 (code ATCC: HTB-1) and T24 (code ATCC: HTB-4) which are two bladder cancers,
as §9, §10

HCT-15 = experiment: MTT test, HCT-15; format: cell-based; settings: Homo sapiens, 10^−5 M, 72 hours, control = 100%, mean ± SEM, read-out: average optical density (MTT), percentage relative to control
Procedure: as §1, §2, §3, §4, §5, §6, §7, §12, §9, §10

J82 = experiment: MTT test, J82; format: cell-based; settings: Homo sapiens, 10^−5 M, 72 hours, control = 100%, mean ± SEM, read-out: average optical density (MTT), percentage relative to control
Procedure: as §1, §2, §3, §4, §5, §6, §7, §14, §9, §10

U-373MG = experiment: MTT test, U-373MG; format: cell-based; settings: Homo sapiens, U373 MG, 10^−5 M, 72 hours, control = 100%, mean ± SEM, read-out: average optical density (MTT), percentage relative to control
Procedure: as §1, §2, §3, §4, §5, §6, §7, §11, §9, §10

PC-3 = experiment: MTT test, PC-3; format: cell-based; settings: Homo sapiens, 10^−5 M, 72 hours, control = 100%, mean ± SEM, read-out: average optical density (MTT), percentage relative to control
Procedure: as §1, §2, §3, §4, §5, §6, §7
PC-3 (code ATCC: CRL-1435) which is a prostate cancer.
as §9, §10

| SMILES | viability at 10 µM (T-47D) [%] | viability at 10 µM (U-87MG) [%] | viability at 10 µM (MCF7) [%] | MTD at 14 day [1] [mg/kg] | viability at 10 µM (SW1088) [%] | viability at 10 µM (LoVo) [%] | viability at 10 µM (A-427) [%] | viability at 10 µM (A549) [%] | viability at 10 µM (T24) [%] | viability at 10 µM (HCT-15) [%] | viability at 10 µM (J82) [%] | viability at 10 µM (U-373MG) [%] | viability at 10 µM (PC-3) [%] |
| --- | --- | --- | --- | --- | --- | --- | --- | --- | --- | --- | --- | --- | --- |
| COc1ccc(-c2cc3c(OC)cc(OC)cc3n(C)c2=O)cc1 [CRL8244, 5,7-Dimethoxy-3-(4-methoxyphenyl)-1-methyl-1,2-dihydro-2-quinolinone] | 105 ± 3 | 97 ± 1 | 75.9 ± 3.8 | > 160 | 81.3 ± 1.1 | 78.2 ± 1.8 | 93.6 ± 2.3 | 98 ± 0.9 | 88.7 ± 2.9 | 76.8 ± 3 | 88.5 ± 2.1 | 69 ± 0.9 | 83.2 ± 3.6 |
| COc1ccc(-c2cc3c(OC)cc(OC)cc3n(C)c2=S)cc1 [CRL8245, 5,7-Dimethoxy-3-(4-methoxyphenyl)-1-methyl-1,2-dihydro-2-quinolinethione] | 59.6 ± 2.9 | 58.6 ± 1.7 | 46.9 ± 1 | > 160 | 75.1 ± 2 | 65.5 ± 1.1 | 69 ± 1.9 | 74.1 ± 2.1 | 51.1 ± 1.9 | 35.8 ± 1.2 | 31.1 ± 0.6 | 63.7 ± 2.7 | 74.4 ± 1.9 |
| COc1ccc(-c2cc3c(OC)cc(OC)cc3n(CCCN(C)C)c2=O)cc1 [CRL8254, 1-[3-(Dimethylamino)propyl]-5,7-dimethoxy-3-(4-methoxyphenyl)-1,2-dihydro-2-quinolinone] | 55.2 ± 4.1 | 105 ± 3.6 | 81.9 ± 0.6 | > 160 | 128 ± 2.2 | 91.8 ± 2.7 | 20.2 ± 2.3 | 96.9 ± 1.5 | 103 ± 2.9 | 94.4 ± 3.5 | 87.8 ± 1 | 7.6 ± 1.3 | 97.9 ± 1.2 |
| COc1ccc(-c2cc3c(OC)cc(OC)cc3n(CC#N)c2=O)cc1 [CRL8255, [5,7-Dimethoxy-3-(4-methoxyphenyl)-2-oxo-1,2-dihydro-1-quinolinyl]acetonitrile] | 73.7 ± 3.3 | 72.5 ± 1.1 | 71.5 ± 1.4 | > 160 | 67.5 ± 1.5 | 56.9 ± 1.1 | 76.3 ± 1.5 | 79.1 ± 2.1 | 79.5 ± 2.2 | 58.7 ± 3 | 36.2 ± 0.5 | 68.5 ± 2.7 | 77.7 ± 1.2 |
| COc1ccc(-c2cc3c(OC)cc(OC)cc3n(C)/c2=N\Nc2ccccn2)cc1 [CRL8266, 5,7-Dimethoxy-3-(4-methoxyphenyl)-1-methyl-1,2-dihydro-2-quinolinone-2-(2-pyridyl)hydrazone] | 25 ± 4 | 64.4 ± 1.2 | 46.3 ± 2.6 | > 160 | 68.4 ± 1.6 | 71.3 ± 4.5 | 45.2 ± 2.2 | 61.6 ± 3.5 | 84.6 ± 3 | 76.1 ± 1.5 | 31.2 ± 0.7 | 66.3 ± 1.6 | 67.2 ± 0.9 |
| COc1ccc(-c2cc3c(OC)cc(OC)cc3n(C)/c2=N\Nc2ccccc2)cc1 [CRL8270, 5,7-Dimethoxy-3-(4-methoxyphenyl)-1-methyl-1,2-dihydro-2-quinolinone-2-phenylhydrazone] | 22.9 ± 4.3 | 75.6 ± 0.9 | 51.5 ± 2.4 | > 160 | 50.7 ± 1.8 | 80 ± 3.2 | 30.8 ± 2.1 | 52.2 ± 2.4 | 51.1 ± 3.8 | 58.8 ± 1.8 | 42.5 ± 0.8 | 52.2 ± 3.2 | 49.4 ± 1.1 |
| COc1ccc(-c2cc3c(OC)cc(OC)cc3nc2S)cc1 [CRL8271, 5,7-Dimethoxy-3-(4-methoxhphenyl)-1,2-dihydro-2-quinolinethione] | 90.9 ± 1.7 | 78.5 ± 1.7 | 106 ± 2.3 | > 160 | 102.2 ± 0.5 | 94.2 ± 2.8 | 84.1 ± 1.9 | 94.2 ± 4.7 | 107 ± 2.3 | 87.2 ± 2.8 | 75.9 ± 1.3 | 96.2 ± 1.6 | 107 ± 2.7 |
| COc1cc(OC)c2cc(-c3ccc(O)cc3)c(O)nc2c1 [CRL8284, 5,7-Dimethoxy-3-(4-hydroxyphenyl)-1,2-dihydro-2-quinolinone] | 89.9 ± 1.9 | 88.1 ± 2.2 | 66.6 ± 2.7 | > 160 | 78.3 ± 1.6 | 102 ± 1.3 | 96 ± 2 | 91.7 ± 1.6 | 68.5 ± 0.9 | 77.3 ± 1.8 | 48.8 ± 0.7 | 87.7 ± 1.4 | 83.8 ± 1 |

Source: patent US6593342B1, “Pharmaceutical compositions comprising 2-quinolones” (Laboratoire L. Lafon, priority 1998, dated 2003)
